Values joined by “and” are separate entries in the source; they are usually repeats but may differ in a detail not shown here. Identical values can stand only once.
Assay: xn = mol fraction of the nth substance listed
Conditions: Fluid (supercritical or subcritical phases), Parallel plate method

CC [ethane] + O=C=O
Conditions | thermal conductivity
291.06 K, Amount density=2940 mol/m3, x2 = 0.5 | 0.0276 W/m/K
291.06 K, Amount density=6960 mol/m3, x2 = 0.5 | 0.099 W/m/K
291.07 K, Amount density=5650 mol/m3, x2 = 0.5 | 0.0554 W/m/K
291.07 K, Amount density=7530 mol/m3, x2 = 0.5 | 0.114 W/m/K
291.08 K, Amount density=435 mol/m3, x2 = 0.5 | 0.0191 W/m/K
291.11 K, Amount density=6960 mol/m3, x2 = 0.5 | 0.104 W/m/K
291.17 K, Amount density=6960 mol/m3, x2 = 0.5 | 0.11 W/m/K
291.18 K, Amount density=6960 mol/m3, x2 = 0.5 | 0.108 W/m/K
291.2 K, Amount density=7530 mol/m3, x2 = 0.5 | 0.144 W/m/K
291.24 K, Amount density=7730 mol/m3, x2 = 0.5 | 0.151 W/m/K
291.26 K, Amount density=7530 mol/m3, x2 = 0.5 | 0.159 W/m/K
291.29 K, Amount density=7530 mol/m3, x2 = 0.5 | 0.158 W/m/K
291.32 K, Amount density=7530 mol/m3, x2 = 0.5 | 0.21 W/m/K
291.33 K, Amount density=7530 mol/m3, x2 = 0.5 | 0.206 W/m/K
291.34 K, Amount density=435 mol/m3, x2 = 0.5 | 0.0192 W/m/K
291.34 K, Amount density=2940 mol/m3, x2 = 0.5 | 0.0274 W/m/K
291.34 K, Amount density=6960 mol/m3, x2 = 0.5 | 0.11 W/m/K
291.34 K, Amount density=7730 mol/m3, x2 = 0.5 | 0.203 W/m/K
291.35 K, Amount density=5650 mol/m3, x2 = 0.5 | 0.0542 W/m/K
291.35 K, Amount density=6960 mol/m3, x2 = 0.5 | 0.111 W/m/K
291.35 K, Amount density=7530 mol/m3, x2 = 0.5 | 0.172 W/m/K
291.5 K, Amount density=435 mol/m3, x2 = 0.5 | 0.0192 W/m/K
291.55 K, Amount density=2940 mol/m3, x2 = 0.5 | 0.0274 W/m/K
291.55 K, Amount density=7730 mol/m3, x2 = 0.5 | 0.128 W/m/K
291.57 K, Amount density=5650 mol/m3, x2 = 0.5 | 0.0553 W/m/K
291.57 K, Amount density=7530 mol/m3, x2 = 0.5 | 0.139 W/m/K
292.05 K, Amount density=6960 mol/m3, x2 = 0.5 | 0.099 W/m/K and 0.0913 W/m/K
292.05 K, Amount density=7530 mol/m3, x2 = 0.5 | 0.106 W/m/K
292.05 K, Amount density=7730 mol/m3, x2 = 0.5 | 0.102 W/m/K
292.08 K, Amount density=435 mol/m3, x2 = 0.5 | 0.0192 W/m/K
292.09 K, Amount density=5650 mol/m3, x2 = 0.5 | 0.0546 W/m/K
292.11 K, Amount density=2940 mol/m3, x2 = 0.5 | 0.0276 W/m/K
292.64 K, Amount density=6630 mol/m3, x2 = 0.74 | 0.0593 W/m/K
293.08 K, Amount density=6710 mol/m3, x2 = 0.26 | 0.0687 W/m/K
293.08 K, Amount density=7530 mol/m3, x2 = 0.5 | 0.0833 W/m/K
293.09 K, Amount density=6960 mol/m3, x2 = 0.5 | 0.0861 W/m/K
293.11 K, Amount density=7730 mol/m3, x2 = 0.5 | 0.0798 W/m/K
293.13 K, Amount density=2940 mol/m3, x2 = 0.5 | 0.0277 W/m/K
293.14 K, Amount density=5650 mol/m3, x2 = 0.5 | 0.052 W/m/K
293.15 K, Amount density=435 mol/m3, x2 = 0.5 | 0.0193 W/m/K
293.15 K, Amount density=877 mol/m3, x2 = 0.26 | 0.0213 W/m/K
293.15 K, Amount density=6630 mol/m3, x2 = 0.74 | 0.0578 W/m/K
293.15 K, Amount density=9120 mol/m3, x2 = 0.74 | 0.213 W/m/K
293.17 K, Amount density=9120 mol/m3, x2 = 0.74 | 0.16 W/m/K
293.24 K, Amount density=9120 mol/m3, x2 = 0.74 | 0.156 W/m/K
293.34 K, Amount density=9120 mol/m3, x2 = 0.74 | 0.135 W/m/K
293.53 K, Amount density=9120 mol/m3, x2 = 0.74 | 0.116 W/m/K
293.64 K, Amount density=3090 mol/m3, x2 = 0.26 | 0.0314 W/m/K
293.95 K, Amount density=9120 mol/m3, x2 = 0.74 | 0.101 W/m/K
294.32 K, Amount density=9120 mol/m3, x2 = 0.74 | 0.0842 W/m/K
294.72 K, Amount density=9120 mol/m3, x2 = 0.74 | 0.0824 W/m/K
294.96 K, Amount density=6710 mol/m3, x2 = 0.26 | 0.075 W/m/K
295.61 K, Amount density=7450 mol/m3, x2 = 0.25 | 0.0795 W/m/K

Source: the NIST ThermoML archive (doi:10.1007/s10765-008-0482-1)
